Our source for the Dmax and DC50 values is US20260125397A1, “MK2 DEGRADERS AND USES THEREOF” (Kymera Therapeutics, Inc., priority 2023, published 2026).

Each structure is given as a SMILES string.

In assay [1] the target is T1, MK2 (Homo sapiens, UniProt P49137). Description: MK2 degradation in human THP-1 monocytic cells (MSD, 24 h). The assay is classed as cell-based. Set-up: endogenous in cells. The following applies: THP-1 cells; for DC50: read-out: MK2 MSD THP-1 degradation 24 h GMean External Abs DC50. The procedure:
The human monocytic cancer cell line THP-1 (ATCC (TIB-202)) was cultured in 96 well plates (Coming 3894) at a density of 200,000 cells per well in 100 microlitres in complete growth medium of RPMI 1640 (Gibco) pus 10% fetal Bovine Serum (Coming) and Penicillin/Streptomycin (SolarBio) at 37 degrees Celsius and 5% CO2. A serial dilution of each compound (usually 3 to 5 fold serial dilutions up to 10 separate concentration points) was added to individual wells from a 10 millimolar stock solution, at a background concentration of 0.1% DMSO and the cells were shaken at 600 rpm for 5 minutes and then were cultured for 24 hours at 37 degrees Celsius and 5% carbon dioxide. Separately, a custom MSD (MesoScaleDiscovery, L15XA-3) plate for detection of human MK2 was prepared by coating the plate with the commercial AbCarn ab247272 reagent in 1× Phosphate Buffered Saline at 40 microlitres per well and incubated at 4 degrees Celsius overnight. The next day, the MSD plate was washed with 150 microlitres of Tween buffered saline, blocked with MSD blocking buffer (3% BlockerA from MSD), and washed again.
(§1) The cell plate was centrifuged at 3,200 g for 5 minutes and the supernatant was discarded and 100 microlitres of RIPA lysis buffer (containing proteinase inhibitors, Boston BioProducts BP-115D) was added and the plate was sealed and shaken on ice for 20 minutes. The plate was centrifuged as before and 70 microlitres of sample lysate was added to the MSD plates and they were shaken at room temperature for I hour at 600 rpm. The MSD plate was washed 3 times as before and then the primary MK2 detection antibody (Santa Cruz sc-100393) was added at a final concentration of 1 microgram per ml at 25 microlitres per well and shaken at room temperature for 1 hour at 600 rpm.
(§2) After 3 more washes, the secondary detection antibody (SULFO-Tag anti rabbit antibody R32AB-5) was added at a final concentration of 1 microgram per ml at 25 microlitres per well and shaken at room temperature for 1 hour at 600 rpm. After 3 more washes, the 1X MSD (diluted from 5X concentrate with water) reading buffer was added at 150 microlitres per well and read on the MSD instrument Meso Sector S 600.
The inhibition/degradation curves and DC50 values were plotted and calculated using XL Fit (version v5.3.1.3) using equation 201 and a 4 parameter logistic model whereby fit=(A+((B−A)/(1+((x/C)D))) where A is the Bottom and B is the Top and C is the IC50and D is the slope and high C is the signal for the DMSO treated cells and Low C is the signal is the signal for the lysis buffer.

Assay [2] concerns the target T1, MK2. Nature of the assay: MK2 degradation in human SW1353 cells (MSD, 24 h). The assay is classed as cell-based. The following applies: for Dmax: read-out: MK2 MSD SW 1353 24 h Dmax %; for DC50: read-out: MK2 MSD SW1353 degradation 24 h GMean External Abs DC50. Further details: endogenous in cells; host or cells: SW-1353 (ATCC HTB-94). The protocol:
The human chondrocyte cancer cell line SW-1353 (ATCC(HTB-94)) was cultured in 96 well plates (Coming 3894) at a density of 200,000 cells per well in 100 microlitres in complete growth medium of Leibovitz's L-15 Medium (Gibco) pus 10% fetal Bovine Serum (Coming) and Penicillin/Streptomycin (SolarBio) at 37 degrees Celsius. A serial dilution of each compound (usually 3 to 5 fold serial dilutions up to 10 separate concentration points) was added to individual wells from a 10 millimolar stock solution, at a background concentration of 0.10% DMSO and the cells were shaken at 600 rpm for 5 minutes and then were cultured for 24 hours at 37 degrees Celsius. Separately, a custom MSD (MesoScaleDiscovery, L15XA-3) plate for detection of human MK2 was prepared by coating the plate with the commercial AbCam ab247272 reagent in 1× Phosphate Buffered Saline at 40 microlitres per well and incubated at 4 degrees Celsius overnight. The next day, the MSD plate was washed with 150 microlitres of Tween buffered saline, blocked with MSD blocking buffer (3% Blocker A from MSD), and washed again.
as §1, with “for 1” for “for I”
as §2
The inhibition/degradation curves and DC50 values were plotted and calculated using XL Fit (version v5.3.1.3) using equation 201 and a 4 parameter logistic model whereby fit=(A+((B−A)/(1+((x/C)D))) where A is the Bottom and B is the Top and C is the IC50 and D is the slope and high C is the signal for the DMSO treated cells and Low C is the signal is the signal for the lysis buffer.

T1 sequence (P49137 whole entry): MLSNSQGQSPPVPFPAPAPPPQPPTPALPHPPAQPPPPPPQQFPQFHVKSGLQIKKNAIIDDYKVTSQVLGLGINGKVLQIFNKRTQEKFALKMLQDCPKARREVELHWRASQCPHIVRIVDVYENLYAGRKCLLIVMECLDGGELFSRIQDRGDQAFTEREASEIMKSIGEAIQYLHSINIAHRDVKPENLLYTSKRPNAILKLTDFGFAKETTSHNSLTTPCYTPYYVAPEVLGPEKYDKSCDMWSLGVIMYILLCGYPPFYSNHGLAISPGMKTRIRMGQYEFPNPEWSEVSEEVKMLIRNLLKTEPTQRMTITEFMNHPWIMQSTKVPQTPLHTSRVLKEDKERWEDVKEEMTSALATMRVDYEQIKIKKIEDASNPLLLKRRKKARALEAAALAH

For the molecule `C[C@@H]1CNc2c(sc3ccc4nc(N5CCN(CC6CCC7(CC6)CN(c6ccc(NC8CCC(=O)NC8=O)cc6F)C7)CC5)ccc4c23)C(=O)N1` (stereo partly shown) [I-20], at MK2 [1], the Dmax (as a rule, the largest share of the target that was removed) is greater than 75% and the DC50 (in general, the midpoint of the concentration-degradation curve) was in the range of 1 to 10 nM. Also, on MK2 [2], the Dmax is greater than 75% and the DC50 lay within 1 to 10 nM.
In the case of `Cn1c(=O)n(C2CCC(=O)NC2=O)c2cccc(-n3ccc(N4CCN(c5ccc(-c6nccc(-c7cc8c([nH]7)C7(CCCC7)CNC8=O)n6)cc5)CC4)c3)c21` (stereo not shown) [I-32], at MK2 [1], the Dmax is greater than 50% and the DC50 is greater than 100 nM. On MK2 [2], the Dmax is greater than 50% and the DC50 was greater than 100 nM.
Regarding `Cn1c(=O)n(C2CCC(=O)NC2=O)c2ccc(N3CC(CN4CCN(c5ccc(-c6nccc(-c7cc8c([nH]7)C7(CC7)CNC8=O)n6)cc5C(F)(F)F)CC4)C3)cc21` (stereo not shown) [I-48], on MK2 [1], the Dmax was greater than 75% and the half-maximal degradation concentration (DC50) was less than 1 nM. Also, at MK2 [2], the Dmax is 50 to 75% and the DC50 was less than 1 nM.
As to `Cn1c(=O)n(C2CCC(=O)NC2=O)c2ccc(N3CC(CN4CCN(c5ccc(-c6nccc(-c7cc8c([nH]7)C7(CC7)CNC8=O)n6)cc5C#N)CC4)C3)cc21` (stereo not shown) [I-37], on MK2 [1], the Dmax was greater than 75% and the DC50 was less than 1 nM. For the same molecule, at MK2 [2], the Dmax is greater than 75% and the DC50 is less than 1 nM.
Take `O=C1CCN(c2cncc3c(CCN4CCN(c5ccc(-c6nccc(-c7cc8c([nH]7)C7(CCC7)CNC8=O)n6)c(F)c5)CC4)cccc23)C(=O)N1` [I-31]: on MK2 [1], the Dmax is greater than 75% and the 50% degradation concentration (DC50) was less than 1 nM. Besides, at MK2 [2], the Dmax was greater than 75% and the 50% degradation concentration (DC50) is 1 to 10 nM.
`C[C@@H]1CNc2c(sc3ccc4nc(N5CCC(COC6CCN(c7ccc8c(c7)n(C)c(=O)n8C7CCC(=O)NC7=O)CC6)CC5)ccc4c23)C(=O)N1` (stereo partly shown) [I-38]: on MK2 [1], the greatest degradation seen (Dmax) fell in the range of 50 to 75% and the DC50 is less than 1 nM. Moreover, at MK2 [2], the Dmax lay within 50 to 75% and the DC50 was less than 1 nM.
As to `Cn1c(=O)n(C2CCC(=O)NC2=O)c2ccc(N3CC(CN4CCC(N5CCN(c6nccc(-c7cc8c([nH]7)C7(CC7)CNC8=O)n6)CC5)CC4)C3)cc21` (stereo not shown) [I-34], the Dmax at MK2 [1] and on MK2 [2] was greater than 50% throughout. The DC50 on MK2 [1] and on MK2 [2] was greater than 100 nM in each case.
In the case of `Cn1c(=O)n(C2CCC(=O)NC2=O)c2ccc(C#CCN3CCN(c4ccc(-c5nccc(-c6cc7c([nH]6)C6(CC6)CNC7=O)n5)cc4)CC3)cc21` (stereo not shown) [I-41], on MK2 [1], the Dmax was greater than 75% and the DC50 was less than 1 nM. Moreover, on MK2 [2], the Dmax was in the range of 50 to 75% and the DC50 was less than 1 nM.
Take `Cn1c(=O)n(C2CCC(=O)NC2=O)c2ccc(N3CC(CN4CCN(c5ccc(-c6cc(-c7cc8c(o7)C7(CC7)CNC8=O)ncn6)cc5)CC4)C3)cc21` (stereo not shown) [I-29]: at MK2 [1], the Dmax is greater than 50% and the DC50 was greater than 100 nM. On MK2 [2], the greatest degradation seen (Dmax) was greater than 50% and the DC50 is greater than 100 nM.
Regarding `Cn1c(=O)n(C2CCC(=O)NC2=O)c2cccc(N3CCC(N4CCN(c5ccc(-c6nccc(-c7cc8c([nH]7)C7(CCCC7)CNC8=O)n6)cc5)CC4)C3)c21` (stereo not shown) [I-33], at MK2 [1], the Dmax was 50 to 75% and the DC50 lay in the range of 1 to 10 nM. Further, at MK2 [2], the Dmax was 50 to 75% and the 50% degradation concentration (DC50) fell in the range of 1 to 10 nM.
As for `C[C@@H]1CNc2c(sc3ccc4nc(N5CCN(CC6CC7(CCN(c8ccc9c(N%10CCC(=O)NC%10=O)cncc9c8)CC7)C6)CC5)ccc4c23)C(=O)N1` [I-50], on MK2 [1], the Dmax is greater than 75% and the 50% degradation concentration (DC50) was less than 1 nM. Moreover, on MK2 [2], the Dmax is greater than 75% and the DC50 is less than 1 nM.
For the molecule `COc1ccc2c(c1CCN1CCN(c3ccc(-c4nccc(-c5cc6c([nH]5)C5(CC5)CNC6=O)n4)cc3)CC1)n(C)c(=O)n2C1CCC(=O)NC1=O` (stereo not shown) [I-42], at MK2 [1], the Dmax was greater than 75% and the DC50 was less than 1 nM. For the same molecule, on MK2 [2], the Dmax is greater than 75% and the DC50 was less than 1 nM.
`Cn1c(=O)n(C2CCC(=O)NC2=O)c2ccc(N3CC(CN4CCN(c5ccc(-c6nccc(-c7cc8c([nH]7)C7(CC7)CNC8=O)n6)cc5)CC4)C3)cc21` (stereo not shown) [I-45]: on MK2 [1], the Dmax is greater than 50% and the DC50 is greater than 100 nM. On MK2 [2], the Dmax is greater than 50% and the DC50 was greater than 100 nM.
